Test results taken from patent publication US9034899B2, “Aryl, heteroaryl, and heterocycle substituted tetrahydroisoquinolines and use thereof” (Albany Molecular Research, Inc., priority 2009, dated 2015).

Columns and labels:
[1] = target: hSERT (Homo sapiens (Human), UniProt P31645); experiment: SERT radioligand binding assay ([125I]RTI-55, HEK-293 membranes); details: (+)-enantiomers; read-out: SERT IC50
Procedure: The medium was removed from the flasks and the cells rinsed with HBSS without Ca and without Mg. The cells were then incubated for 5-10 minutes in 10 mM Tris-Cl, pH 7.5, 5 mM EDTA before the cells were lifted with a combination of pipetting and scraping, as needed. The cell suspension was collected into centrifuge bottles and homogenized for 30 seconds with a Polytron homogenizer. The suspension was centrifuged for 30 minutes at 32,000×g, 4° C. The supernatant was decanted and the pellet resuspended and homogenized in 50 mM Tris-Cl, pH 7.5, 1 mM EDTA for 10 seconds. The suspension was then centrifuged again for 30 minutes at 32,000×g, 4° C. The supernatant was decanted and the pellet resuspended in 50 mM Tris-Cl, pH 7.5, 1 mM EDTA and briefly homogenized. A Bradford assay (Bio-rad) was performed and the membrane preparation diluted to 2 mg/ml with 50 mM Tris-Cl, pH 7.5, 1 mM EDTA. Aliquots were prepared, and then frozen and stored at −80° C.
Compounds were dissolved in 100% DMSO at a concentration 100 times the desired highest assay concentration, serially diluted 1:3 in 100% DMSO, and 0.4 μl/well of each solution was dispensed to a Nunc polypropylene, round bottom, 384-well plate. […] The contents of the assay plate were then transferred to a Millipore MultiscreenHTS GF/B filter plate which was pretreated with 0.5% PEI for at least one hour. The plate was vacuum filtered and washed with 7 washes of 100 μl/well 50 mM Tris-Cl, pH 7.5, 120 mM NaCl, 5 mM KCl chilled to 4° C. The filtration and washing were completed in less than 90 seconds. The plates were air-dried overnight, 12 μl/well of MicroScint scintillation fluid added, and the plates counted in a Trilux.
Each plate was run in triplicate, and the concentration response curve thus generated was fit using the four-parameter dose response equation, Y=Bottom+(Top-Bottom)/(1+10^((LogIC50−X)*HillSlope)) in order to determine the IC50 value for each compound. The radioligand concentration chosen for each assay corresponds to the Kd concentration determined through saturation binding analysis for each assay.

[2] = system: NET; experiment: Occupancy assay, ex vivo binding in brain tissue, NET
Excerpt: The general procedure for brain tissue collection and transporter occupancy assessment is briefly described as follows. Mice were sacrificed by asphyxiation in CO2, rats by decapitation and dogs by IV injection of euthanasia solution. For mice and rats, after the brains were removed from the skull, the forebrain tissue (removal of the brainstem and cerebellum) was used for SERT, NET, and DAT occupancy assessment. In dogs, the striatum was dissected for DAT occupancy and the remaining forebrain tissue (without the striatum, brainstem, and cerebellum) was used for SERT and NET occupancy assessment. The brain tissues were frozen in chilled isopentane and stored at −80° C. until homogenization.
The brain tissues were thawed and then homogenized using a polytron homogenizer (Kinematica). Sample aliquots were frozen immediately and stored at −80° C. Protein content was measured for each sample using a Coomassie protein assay kit (Pierce).
On the day of ex vivo binding for occupancy assessment, frozen sample aliquots were thawed and needle homogenized, and 100 μg of the tissue was incubated for SERT, NET, and DAT binding under assay conditions summarized in Table 2. […] The filters were washed twice with ice-cold incubation buffer, punched into a clear plate prior to the addition of 200 ul scintillation fluid per well. Radioligand was measured using a Wallac Microbeta liquid scintillation counter.
The specific binding was calculated by subtracting the value of the non-specific binding from that of the total binding in each sample. The percent occupancy was calculated as (1−specific binding in drug treated/specific binding in vehicle treated)×100%. […] Nonlinear regression was performed using GraphPad Prism version 3.00 (GraphPad Software, San Diego, Calif.).

hSERT, sequence (P31645 whole entry): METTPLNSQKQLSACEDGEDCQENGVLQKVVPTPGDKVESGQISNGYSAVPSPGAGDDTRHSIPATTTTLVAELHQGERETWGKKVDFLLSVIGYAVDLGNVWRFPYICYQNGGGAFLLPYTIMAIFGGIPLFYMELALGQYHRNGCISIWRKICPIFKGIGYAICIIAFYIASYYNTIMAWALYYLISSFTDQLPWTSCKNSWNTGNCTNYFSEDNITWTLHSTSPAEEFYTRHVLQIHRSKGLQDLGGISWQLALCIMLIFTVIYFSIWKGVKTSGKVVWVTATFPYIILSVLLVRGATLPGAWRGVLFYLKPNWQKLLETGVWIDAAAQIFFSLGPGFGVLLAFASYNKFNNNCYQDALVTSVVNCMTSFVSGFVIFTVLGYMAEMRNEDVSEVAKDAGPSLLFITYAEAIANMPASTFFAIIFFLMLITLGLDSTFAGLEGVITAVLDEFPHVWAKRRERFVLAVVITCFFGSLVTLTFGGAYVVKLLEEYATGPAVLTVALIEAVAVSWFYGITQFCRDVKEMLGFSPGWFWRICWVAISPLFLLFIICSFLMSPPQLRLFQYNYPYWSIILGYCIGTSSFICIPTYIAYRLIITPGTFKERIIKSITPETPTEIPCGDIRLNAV

For `CC1(C)NCC(c2ccc(Cl)c(Cl)c2)c2ccc(-c3cccnn3)cc21` (single isomer, unassigned) [Example 9, 4-(3,4-dichlorophenyl)-1,1-dimethyl-7-(pyridazin-3-yl)-1,2,3,4-tetrahydroisoquinoline], the IC50 [1] was 4.8 nM and the “NET Occupancy %” value ([2]; dose 1 mg/kg, time point 1 h) was 20%.

In the case of `FC(F)Oc1ccc(-c2ccc3c(c2)CNCC3c2ccc(Cl)c(Cl)c2)nn1` (centres unmarked) [Example 12, 4-(3,4-dichlorophenyl)-7-(6-(difluoromethoxy)pyridazin-3-yl)-1,2,3,4-tetrahydroisoquinoline], the IC50 [1] is reported as 3.6 nM and the “NET Occupancy %” value ([2]; dose 1 mg/kg, time point 3 h) is reported as 46%.

`CC1(C)NCC(c2ccc(Cl)c(Cl)c2)c2ccc(-c3ccc(N)nn3)cc21` (centres unmarked) [Example 13, 4-(3,4-dichlorophenyl)-7-(6-aminopyridazin-3-yl)-1,1-dimethyl-1,2,3,4-tetrahydroisoquinoline] was tested, and the IC50 [1] was 2.3 nM and the “NET Occupancy %” value ([2]; dose 3 mg/kg, time point 3 h) was 5%.

In the case of `Cc1noc(C)c1-c1ccc2c(c1)CNCC2c1ccc(Cl)c(Cl)c1` (centres unmarked) [Example 25, 4-(4-(3,4-dichlorophenyl)-1,2,3,4-tetrahydroisoquinolin-7-yl)-3,5-dimethylisoxazole], the IC50 [1] is reported as 4.9 nM and the “NET Occupancy %” value ([2]; dose 1 mg/kg, time point 3 h) is reported as 0%.

`Clc1ccc(C2CNCc3cc(-c4cccnn4)ccc32)cc1Cl` (centres unmarked) [Example 33, 4-(3,4-dichlorophenyl)-7-(pyridazin-3-yl)-1,2,3,4-tetrahydroisoquinoline] was tested, and the IC50 [1] was 6.2 nM and the “NET Occupancy %” value ([2]; dose 1 mg/kg, time point 1 h) was 3%.

For `Nc1ccc(-c2ccc3c(c2)CNCC3c2ccc(Cl)c(Cl)c2)nn1` (centres unmarked) [Example 34, 6-(4-(3,4-dichlorophenyl)-1,2,3,4-tetrahydroisoquinolin-7-yl)pyridazin-3-amine], the IC50 [1] was 1.8 nM and the “NET Occupancy %” value ([2]; dose 1 mg/kg, time point 1 h) was 11%.

With `CC1(C)NCC(c2ccc(Cl)c(Cl)c2)c2ccc(-c3ccc4ncnn4c3)cc21` (centres unmarked) [Example 40, 4-(3,4-dichlorophenyl)-7-([1,2,4]triazolo[1,5-a]pyridin-6-yl)-1,1-dimethyl-1,2,3,4-tetrahydroisoquinoline] the IC50 [1] was 4.2 nM and the “NET Occupancy %” value ([2]; dose 3 mg/kg, time point 3 h) was 1%.
